Results as given in patent publication EP2787003A1, “Antimicrobial peptide produced by marine sponge-derived Bacillus subtilis” (priority 2013, dated 2014).

Columns and labels:
[1] = system: B. megaterium; test: Spot on lawn assay; type: cell-based, Bacillus megaterium ATCC 19213 (BGSC 7A2); set-up: key: +, clear halo of growth inhibition; ++: multiple +, increased activity as assessed visually by the increased diameter of the inhibition zone; +++: multiple +, increased activity as assessed visually by the increased diameter of the inhibition zone; ++++: multiple +, increased activity as assessed visually by the increased diameter of the inhibition zone; +++++: multiple +, increased activity as assessed visually by the increased diameter of the inhibition zone; -, no inhibition; settings: indicator B. megaterium
Description: (§1) Antimicrobial activity of isolate MMA7 against the indicator strains was initially assessed with a deferred antagonism assay as described by Phelan et al. (2012). Subsequent testing of supernatants, crude extracts and purified compounds was carried out with a well and/or a spot on lawn assays. Essentially, 5 µl of samples were spotted onto 20 ml agar plates seeded with the indicator strain to a final OD600 of 0.015, or 30 µl aliquots were applied to a 5 mm well made on identical plates.

[2] = system: B. cereus; test: Spot on lawn assay; type: cell-based, Bacillus cereus NCIMB 9373; set-up: key: +, clear halo of growth inhibition; ++: multiple +, increased activity as assessed visually by the increased diameter of the inhibition zone; +++: multiple +, increased activity as assessed visually by the increased diameter of the inhibition zone; ++++: multiple +, increased activity as assessed visually by the increased diameter of the inhibition zone; +++++: multiple +, increased activity as assessed visually by the increased diameter of the inhibition zone; -, no inhibition; settings: indicator B. cereus
Description: as §1

[3] = system: Alteromonas sp.; test: Spot on lawn assay; type: cell-based; set-up: key to Antimicrobial activity, spot on lawn assay: +, clear halo of growth inhibition; ++: multiple +, increased activity as assessed visually by the increased diameter of the inhibition zone; +++: multiple +, increased activity as assessed visually by the increased diameter of the inhibition zone; ++++: multiple +, increased activity as assessed visually by the increased diameter of the inhibition zone; +++++: multiple +, increased activity as assessed visually by the increased diameter of the inhibition zone; -, no inhibition
Description: as §1

[4] = system: C. albicans; test: Spot on lawn assay; type: cell-based, Candida albicans SC5314; set-up: key: +, clear halo of growth inhibition; ++: multiple +, increased activity as assessed visually by the increased diameter of the inhibition zone; +++: multiple +, increased activity as assessed visually by the increased diameter of the inhibition zone; ++++: multiple +, increased activity as assessed visually by the increased diameter of the inhibition zone; +++++: multiple +, increased activity as assessed visually by the increased diameter of the inhibition zone; -, no inhibition; settings: indicator C. albicans
Description: as §1

[5] = system: L. innocua; test: Spot on lawn assay; type: cell-based, Listeria innocua DPC 3567; set-up: key: +, clear halo of growth inhibition; ++: multiple +, increased activity as assessed visually by the increased diameter of the inhibition zone; +++: multiple +, increased activity as assessed visually by the increased diameter of the inhibition zone; ++++: multiple +, increased activity as assessed visually by the increased diameter of the inhibition zone; +++++: multiple +, increased activity as assessed visually by the increased diameter of the inhibition zone; -, no inhibition; settings: indicator L. innocua
Description: as §1

[6] = system: hVISA; test: Spot on lawn assay; type: cell-based, hVISA 35197; set-up: key: +, clear halo of growth inhibition; ++: multiple +, increased activity as assessed visually by the increased diameter of the inhibition zone; +++: multiple +, increased activity as assessed visually by the increased diameter of the inhibition zone; ++++: multiple +, increased activity as assessed visually by the increased diameter of the inhibition zone; +++++: multiple +, increased activity as assessed visually by the increased diameter of the inhibition zone; -, no inhibition; settings: indicator hVISA
[7] = system: L. lactis HP; test: Spot on lawn assay; type: cell-based, Lactococcus lactis HP; set-up: key: +, clear halo of growth inhibition; ++: multiple +, increased activity as assessed visually by the increased diameter of the inhibition zone; +++: multiple +, increased activity as assessed visually by the increased diameter of the inhibition zone; ++++: multiple +, increased activity as assessed visually by the increased diameter of the inhibition zone; +++++: multiple +, increased activity as assessed visually by the increased diameter of the inhibition zone; -, no inhibition; settings: indicator L. lactis HP
Description: as §1

[8] = system: P. aeruginosa; test: Spot on lawn assay; type: cell-based, Pseudomonas aeruginosa PAO1; set-up: key: +, clear halo of growth inhibition; ++: multiple +, increased activity as assessed visually by the increased diameter of the inhibition zone; +++: multiple +, increased activity as assessed visually by the increased diameter of the inhibition zone; ++++: multiple +, increased activity as assessed visually by the increased diameter of the inhibition zone; +++++: multiple +, increased activity as assessed visually by the increased diameter of the inhibition zone; -, no inhibition; settings: indicator P. aeruginosa; *activity only detected with 4 to 5 times more peptide than that used for the other indicators
Description: as §1

[9] = system: S. aureus; test: Spot on lawn assay; type: cell-based, Staphylococcus aureus NCDO 949; set-up: key: +, clear halo of growth inhibition; ++: multiple +, increased activity as assessed visually by the increased diameter of the inhibition zone; +++: multiple +, increased activity as assessed visually by the increased diameter of the inhibition zone; ++++: multiple +, increased activity as assessed visually by the increased diameter of the inhibition zone; +++++: multiple +, increased activity as assessed visually by the increased diameter of the inhibition zone; -, no inhibition; settings: indicator S. aureus
Description: as §1

[10] = system: C. perfringens; type: cell-based, Clostridium perfringens NCDO 1799; set-up: key: +, clear halo of growth inhibition; ++: multiple +, increased activity as assessed visually by the increased diameter of the inhibition zone; +++: multiple +, increased activity as assessed visually by the increased diameter of the inhibition zone; ++++: multiple +, increased activity as assessed visually by the increased diameter of the inhibition zone; +++++: multiple +, increased activity as assessed visually by the increased diameter of the inhibition zone; -, no inhibition; settings: indicator C. perfringens
[11] = system: Candida strains; test: Spot on lawn assay; type: cell-based; settings: any of the Candida strains
Description: as §1
The activity of the purified peptide was tested together with its ASCE preparations, against the strains which were initially used as indicators on the colony overlay assay with the producing strain MMA7 (Table 4). […] No activity was detected against any of the Candida strains.

With `C=C1NC(=O)[C@@H]2CSC[C@@H](NC(=O)[C@@H]3CS[C@@H](C)[C@H]4NC(=O)[C@H](Cc5ccccc5)NC(=O)[C@H](NC(=O)[C@H](CCCNC(=N)N)NC(=O)[C@@H]5CSC[C@@H](NC(=O)[C@H](CCC(N)=O)NC(=O)[C@@H](NC(=O)[C@@H](NC(=O)/C(=C/C)NC(=O)[C@H](CCCCN)NC(=O)CNC(=O)[C@@H](NC(=O)/C(=C/C)NC(=O)[C@H](C)NC(=O)[C@H](Cc6c[nH]c7ccccc67)NC(=O)C(=O)CC)[C@@H](C)CC)[C@@H](C)CC)C(C)C)C(=O)N[C@@H](C(C)C)C(=O)N[C@@H](CCCCN)C(=O)N[C@@H](CCCCN)C(=O)N5)[C@H](C)SC[C@H](NC4=O)C(=O)NCC(=O)N3)C(=O)N[C@@H](CC(C)C)C(=O)NCC(=O)N[C@H](CSC[C@@H](C(=O)N[C@@H](CC(N)=O)C(=O)O)NC(=O)[C@H](CC(N)=O)NC1=O)C(=O)N2` [Subtilomycin] the “Antimicrobial activity, spot on lawn assay” value (shortened to “Antimicrobial activity, spot”) [1] was “++”, the “Antimicrobial activity, spot” value [2] was “++” and the “Amount of peptide needed for detectable activity relative to that required to inhibit the Gram-positive indicators” value ([3]; Alteromonas sp.) was “four to five fold more peptide”. For the same compound, the “Antimicrobial activity, spot” value ([3]; indicator Alteromonas sp., *activity only detected with 4 to 5 times more peptide than that used for the other indicators) was “+*”, the “Antimicrobial activity, spot” value [4] was “-” and the “Antimicrobial activity, spot” value [5] was “++”. For the same compound, the “Antimicrobial activity, spot” value [6] was “+”, the “Antimicrobial activity, spot” value [7] was “+” and the “Antimicrobial activity, spot” value [8] was “+*”. For the same compound, the “Antimicrobial activity, spot” value [9] was “+”, the “Antimicrobial activity, spot” value [10] was “-” and the Antimicrobial activity [11] was “No activity”.
